How the values were obtained:
[1] = tested on: SU-DHL-10; assay: Mini cell panel: inhibition of proliferation of SU-DHL-10 cells; type: cell-based
Text: (§1) Test 9: Mini Cell Panel: Assay for Inhibitory Activity of Compounds against Proliferation of 20 Tumor Cell Lines
(§2) Materials and Cells: Fifteen MTAP(-/-) cell lines and five MTAP wild-type cell lines were purchased from ATCC (USA). Cell culture media, fetal bovine serum (FBS), and penicillin-streptomycin were purchased from Thermo Fisher Scientific (USA). 384-well plates were purchased from PerkinElmer (USA). The CellTiter-Glo assay kit was purchased from Promega (USA). Paclitaxel was used as the control compound.

[2] = tested on: SW1573; assay: Mini cell panel: inhibition of proliferation of SW1573 cells; type: cell-based
Text: as §1, §2

[3] = tested on: BxPc-3; assay: Mini cell panel: inhibition of proliferation of BxPc-3 cells; type: cell-based
Text: as §1, §2

[4] = tested on: LN18 MTAP(-/-) cells; assay: Inhibition of proliferation of LN18 MTAP(-/-) cells (CellTiter-Glo); type: cell-based; conditions: cell proliferation, 7 days
Method: Test 5: Assay for Inhibitory Activity of Compounds against LN18 MTAP(-/-) Cell Proliferation
Materials and Cells: The LN18 MTAP(-/-) cell line was provided by Cobioer Biosciences (China). Cell culture media, fetal bovine serum (FBS), and penicillin-streptomycin were purchased from Thermo Fisher Scientific (USA). 384-well plates were purchased from PerkinElmer (USA). The CellTiter-Glo assay kit was purchased from Promega (USA).
Cell Culture: LN18 MTAP(-/-) cells were cultured in a medium supplemented with 10% fetal bovine serum (FBS) and 1% penicillin-streptomycin at 37°C with 5% CO2. Only cells in the logarithmic growth phase were used for experiments.
Cell Proliferation Inhibition Assay: The antiproliferative activity of the compounds against LN18 MTAP(-/-) cells was assessed using the CellTiter-Glo assay kit. Cell suspensions were adjusted to the appropriate density and seeded into 384-well plates at a volume of 40 µL per well, then incubated overnight at 37°C with 5% CO2. Compounds (40 nL) were added to each well to achieve final concentrations ranging from 0 to 1,000 nM (starting concentration 1,000 nM, 3-fold serial dilutions, 9 dose points), with a final DMSO concentration of […]. The cell plates were incubated at 37°C with 5% CO2 for 7 days. Subsequently, 40 µL of CellTiter-Glo reagent was added to measure cell viability.

[5] = tested on: HCT-116 MTAP wild-type cells; assay: Inhibition of proliferation of HCT-116 MTAP wild-type cells (Cell-Titer Glo); type: cell-based; conditions: 8 days
Outline: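 MTAP wild-type HCT-116 cells were seeded, cultured overnight and then exposed to compound from 10,000 nM down in a 10-point, 3-fold series (0.1% DMSO). Plates were incubated 8 days at 37°C, 5% CO2. Proliferation was read by Cell-Titer Glo viability luminescence.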

[6] = tested on: PSN-1; assay: Mini cell panel: inhibition of proliferation of PSN-1 cells; type: cell-based
Text: as §1, §2

[7] = Mouse pharmacokinetic experiment (IV and PO, plasma); type: in vivo, ICR male mice; conditions: ICR mice; for bioavailability: male, mouse, read-out: Bioavailability F (%); for bioavailability / AUClast: plasma
Method: II. Mouse Pharmacokinetic Experiment
The compounds used in this experiment are specific embodiments of the present invention, with reference to compound AMG473 as an example from Amgen's patent WO 2022/169948A1, identified as example 473.
ICR male mice, N=3/group; sourced from Zhejiang Vital River Laboratory Animal Technology Co., Ltd.
3. Drug Preparation and Administration
Single oral (PO) administration to ICR mice: Compounds were dissolved in dimethyl sulfoxide, added to polyethylene glycol 400 and sterile water, and then adjusted to a clear solution with a small amount of 1 mol/L hydrochloric acid. After overnight fasting, the mice were orally gavaged with a dose of 10 mg/kg. Single intravenous (IV) administration to ICR mice: Compounds were dissolved in dimethyl sulfoxide, added to polyethylene glycol 400 and sterile water, and then adjusted to a clear solution with a small amount of 1 mol/L hydrochloric acid. After overnight fasting, the mice received tail vein injections with a dose of 3 mg/kg.
Approximately 30 µL/time point blood samples were collected via the tail vein. Potassium ethylenediaminetetraacetate was used as an anticoagulant, and samples were centrifuged at 4000 g/min for 5 minutes at 4°C within 1 hour. Blood sampling time points were 0.0833 (IV), 0.25, 0.5, 1, 2, 4, 6, 8, 24 hours. Samples were stored in a -20°C freezer.
Plasma samples (30µL, 10µL sample + 20µL blank plasma) were mixed with 200µL ice-cold acetonitrile containing internal standards. After vortexing for 30 seconds, samples were centrifuged at 4000g/min for 20 minutes. One hundred microliters of the supernatant were transferred to a 96-well plate, followed by the addition of 200µL ultrapure water. After vortexing for 30 seconds, 5µL or 10µL were injected into LC-MS/MS for analysis. Table 7: Pharmacokinetic Data

[8] = tested on: MDA-MB-231; assay: Mini cell panel: inhibition of proliferation of MDA-MB-231 cells; type: cell-based
Text: as §1, §2

[9] = tested on: SU-DHL-4; assay: Mini cell panel: inhibition of proliferation of SU-DHL-4 cells; type: cell-based
Text: as §1, §2

[10] = tested on: Ht 1080; assay: Mini cell panel: inhibition of proliferation of Ht 1080 cells; type: cell-based
Text: as §1
as §2, with “Paclitaxel was used as the control compound.” left out

[11] = tested on: SW780; assay: Mini cell panel: inhibition of proliferation of SW780 cells; type: cell-based
Text: as §1, §2

[12] = tested on: DOHH-2; assay: Mini cell panel: inhibition of proliferation of DOHH-2 cells; type: cell-based
Text: as §1, §2

[13] = Homo sapiens, SU-DHL10, MTAP Wild type
[14] = Homo sapiens, SW1573, MTAP (-/-)
[15] = Homo sapiens, BXPC-3, MTAP (-/-)
[16] = Homo sapiens, MDA-MB-231, MTAP (-/-)
[17] = Homo sapiens, SU-DHL-4, MTAP Wild type
[18] = Homo sapiens, HT-1080, MTAP (-/-)
[19] = Homo sapiens, SW780, MTAP (-/-)
[20] = Homo sapiens, DOHH-2, MTAP (-/-)

IC50 ([5]; Homo sapiens, HCT-116, 192 h) | bioavailability ([7]; PO(10mg/kg) vs IV(3mg/kg)) | Compound | IC50 [1, 13] | IC50 [2, 14] | IC50 [3, 15] | IC50 ([4]; Homo sapiens, LN-18, 168 h) | IC50 ([6]; Homo sapiens, PSN1, MTAP (-/-)) | IC50 [8, 16] | IC50 [9, 17] | IC50 [10, 18] | IC50 [11, 19] | IC50 [12, 20] | other results
1710 nM | 77% | CN(C(=O)c1cc2c(cn1)nc(N)c1cncn12)[C@@H]1COc2cc(C(F)(F)F)ccc21 [Example 4, (S)-4-amino-N-methy 1-N-(6-(trifluoromethy 1)-2,3-dihydrobenzofuran-3-yl)imidazo[1,5-a]pyrido[3,4-e]pyrazine-8-carboxamide] | 1300 nM | 662 nM | 15.2 nM | 7.85 nM | 12.6 nM | 955 nM | 1260 nM | 2.4 nM | 177 nM | 19.3 nM | 
1080 nM | 131% | [2H]C([2H])([2H])N(C(=O)c1ccc2nc(N)c3cncn3c2c1)[C@@H]1COc2cc(C(F)(F)F)ccc21 [Example 16, (S)-4-amino-N-(methyl-d3)-N-(6-(trifluoromethyl)-2,3-dihydrobenzofuran-3-yl)imidaz o[1,5-a]quinoxaline-8-carboxamide] |  |  |  | 6.57 nM |  |  |  |  |  |  | 
1140 nM | 257% | [2H]C([2H])([2H])N(C(=O)c1cc2c(cc1F)nc(N)c1cncn12)[C@@H]1COc2cc(C(F)(F)F)ccc21 [Example 41, (S)-4-amino-7-fluoro-N-(methyl-d3)-N-(6-(trifluoromethyl)-2,3-di hydrobenzofuran-3-yl)imidazo[1,5-a]quinox aline-8-carboxamide] |  |  |  | 14.5 nM |  |  |  |  |  |  | 
 |  | (S)-4-amino-7-fluoro-N-methyl-N-(6-(triflu oromethyl)-2,3-dihydr obenzofuran-3-yl)imi dazo[1,5-a]quinoxalin e-8-carboxamide [Example 29] |  |  |  |  |  |  |  |  |  |  | IC50 ([1]; MTAP Wild type): 1590 nM; IC50 ([2]; MTAP (-/-)): 47.3 nM; IC50 ([3]; MTAP (-/-)): 57.2 nM; IC50 [4]: 5.42 nM; IC50 [5]: 935 nM; IC50 ([6]; MTAP (-/-)): 24.1 nM; T1/2 ([7]; IV(3mg/kg)): 4.38 h; AUClast ([7]; IV(3mg/kg)): 12925 ng·h/mL; T1/2 ([7]; PO(10mg/kg)): 4.16 h; Bioavailability F (%) ([7]; PO(10mg/kg) vs IV(3mg/kg)): 102%; AUClast ([7]; PO(10mg/kg)): 43906 ng·h/mL; IC50 ([8]; MTAP (-/-)): 390 nM; IC50 ([9]; MTAP Wild type): > 10000 nM; IC50 ([10]; MTAP (-/-)): 36.7 nM; IC50 ([11]; MTAP (-/-)): 660 nM; IC50 ([12]; MTAP (-/-)): 11.6 nM

Compound | IC50 ([5]; Homo sapiens, HCT-116, 192 h) | bioavailability ([7]; PO(10mg/kg) vs IV(3mg/kg)) | IC50 [1, 13] | IC50 [2, 14] | IC50 [3, 15] | IC50 ([4]; Homo sapiens, LN-18, 168 h) | IC50 ([6]; Homo sapiens, PSN1, MTAP (-/-)) | IC50 [8, 16] | IC50 [9, 17] | IC50 [10, 18] | IC50 [11, 19] | IC50 [12, 20] | other results
CN(C(=O)c1ccc2nc(N)c3cncn3c2c1)[C@@H]1COc2cc(C(F)(F)F)ccc21 [Example 107, (S)-4-amino-N-methy 1-N-(6-(trifluoromethy 1)-2,3-dihydrobenzofuran-3-yl)imidazo[1,5-a]quinoxaline-8-carboxamide] | 1730 nM | 119% | 1700 nM | 44.4 nM | 32.7 nM | 11.1 nM | 30.9 nM | 2060 nM | 3100 nM | 10.4 nM | 210 nM | 33.2 nM | 

Reference: patent EP4775208A1, “USE OF PRMT5 INHIBITOR IN TREATMENT OF TUMORS OR CANCERS” (Apeiron Therapeutics (Hong Kong) Ltd., priority 2023, dated 2025)
